Test results: article PMC4592935, “Application of Molecular Modeling to Development of New Factor Xa Inhibitors” (BioMed Research International, 2015)
pIC50: −log10 of the molar value.

Assays:
Human factor Xa = molecular target: T1, Human factor Xa (Homo sapiens, UniProt P00742); experiment: Inhibition of factor Xa hydrolysis of chromogenic substrate S2765 in buffer; assay type: biochemical; details: for pIC50 / Inhibition of hydrolysis rate specific to the factor Xa substrate in the buffer system IC50: substrate S2765 250 μM, Xa 0.5 nM, 20 mM HEPES pH 8.0; for pIC50: read-out: Inhibition of hydrolysis rate specific to the factor Xa substrate in the buffer system IC50; for inhibitory activity against factor Xa (in words): in vitro, chromogenic substrate hydrolysis
T1 construct: It consists of light (139 residues) and heavy (303 residues) chains linked by a disulfide bridge; purchased Hematologic Technologies Inc. (USA)
Method: Human factor Xa was obtained from Hematologic Technologies Inc. (USA). The Xa-specific chromogenic substrate S2765 (Z-D-Arg-Gly-Arg-pNA·2HCl) was purchased from Chromogenix (USA). All other chemicals were of reagent and analytical grade.
The kinetics of factor Xa inhibition was determined from the hydrolysis reaction of a specific substrate by the enzyme in the presence of tested substances. The chromogenic substrate S2765 (Z-D-Arg-Gly-Arg-pNA·2HCl, Chromogenix, Instrumentation Laboratory Company, Lexington, MA 02421, USA) was used for registering accumulation of p-nitroaniline as a colored product by spectrophotometer.
Plate wells were filled with 20 mM HEPES (pH 8.0) containing 140 mM NaCl and 0.1% polyethylene glycol (molecular weight 6000 Da). Thereafter, the substrate was sequentially added to each well (final concentration, 250 μM), followed by the substance being tested (to a final concentration that was varied) and Xa (final concentration, 0.5 nM). The hydrolysis rate was monitored spectrophotometrically at 405 nm (absorption maximum of the reaction product p-nitroaniline).
The initial rate was determined as the slope of the linear part of the kinetic curve over the first 10 to 20 min of measurement. The inhibitory effect was expressed as the percentage of reduction of the initial hydrolysis rate. The reaction rate in the absence of any inhibitor was taken as 100%. Each result is the mean of two parallel determinations. The inhibitor concentration was determined decreasing hydrolysis rate to 50% (IC50). […] Graphs of optical density against time were plotted.

[1] = Solubility as observed during factor Xa testing; assay type: physicochemical; details: limited the inhibition that could be achieved
From the text: According to the results of our molecular modeling with SOL and DISCORE programs 17 compounds have been selected and investigated in the frame of in vitro experiments.

T1 sequence (P00742 235-488 limits assumed): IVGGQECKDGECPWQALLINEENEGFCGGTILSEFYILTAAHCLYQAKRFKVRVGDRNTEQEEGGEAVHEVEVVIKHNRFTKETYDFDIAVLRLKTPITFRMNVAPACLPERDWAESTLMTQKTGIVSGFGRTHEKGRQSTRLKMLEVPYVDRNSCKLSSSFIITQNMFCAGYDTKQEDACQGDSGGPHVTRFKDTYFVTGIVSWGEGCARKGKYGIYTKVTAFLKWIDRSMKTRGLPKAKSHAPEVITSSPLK
T1 sequence (P00742 41-179 partner limits assumed): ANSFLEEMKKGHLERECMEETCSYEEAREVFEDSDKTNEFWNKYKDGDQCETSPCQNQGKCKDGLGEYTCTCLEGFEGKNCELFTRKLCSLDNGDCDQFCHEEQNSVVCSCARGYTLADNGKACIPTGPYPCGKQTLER

Compound | pIC50 (Human factor Xa) | other results
Cc1cc2nc(Nc3ncc4c(n3)CC(c3cccs3)CC4=O)nc(C)c2cc1C (stereo not drawn) [VGY-0037900] | 5.00 | –
CC1(c2ccc(Cl)cc2)CC(C)(C)N(C(=O)CSc2ccc(Cl)cc2)c2ccccc21 (stereo not drawn) [VGY-0016013] | 4.72 | –
CN1CCN(C2CC(=O)N(c3ccc(Oc4ccccc4)cc3)C2=O)CC1 (stereo not drawn) [VGY-0017263] | – | inhibitory activity against factor Xa (in words) (Human factor Xa): did not show any inhibitory activity; Inhibition of hydrolysis rate specific to the factor Xa substrate in the buffer system IC50 (Human factor Xa): Not inhibited
Cc1nc(N2CCN(C)CC2)[nH]c(=O)c1Cc1ccc(C(C)C)cc1 [VGY-0039772] | – | inhibitory activity against factor Xa (in words) (Human factor Xa): did not show any inhibitory activity; Inhibition of hydrolysis rate specific to the factor Xa substrate in the buffer system IC50 (Human factor Xa): Not inhibited
Clc1ccc2nc(Nc3nc(-c4ccccc4)c4ccccc4n3)nc(-c3ccccc3)c2c1 [VGY-0018863] | 5.00 | –
CCOc1ccc(N2CN(CCCN3CCOCC3)Cn3c2nc(C)c(C)c3=O)cc1 [VGY-0160076] | – | inhibitory activity against factor Xa (in words) (Human factor Xa): did not show any inhibitory activity; Inhibition of hydrolysis rate specific to the factor Xa substrate in the buffer system IC50 (Human factor Xa): Not inhibited
Cc1ccc2nc(Nc3nc(-c4cnc(N5CCCCC5)nc4C)cc(=O)[nH]3)nc(C)c2c1 [VGY-0163641] | 4.92 | –
CC1CC2(CCCC2)N2C(=O)C3(NCCc4c3[nH]c3ccccc43)c3cc(F)cc1c32 (stereo not drawn) [VGY-0041455] | 4.40 | –
CC1(c2ccc(Cl)cc2)CC(C)(C)N2C(=O)/C(=N/c3ccc(Oc4ccccc4)cc3)c3cccc1c32 (stereo not drawn) [VGY-0027889] | 4.69 | –
O=C1CC(c2ccco2)Cc2nc(N3CCN(Cc4ccc5c(c4)OCO5)CC3)ncc21 (stereo not drawn) [VGY-0038035] | – | inhibition at 51 µM (Human factor Xa; at concentration of 51 μM): 34%; inhibitory activity against factor Xa (in words) (Human factor Xa): weakly inhibited; Inhibition of hydrolysis rate specific to the factor Xa substrate in the buffer system IC50 (Human factor Xa): Weakly inhibited; solubility (in words) [1]: poor solubility
Cc1ccc(C)c(N2C(=O)CC(N3CCN(Cc4ccc5c(c4)OCO5)CC3)C2=O)c1 (stereo not drawn) [VGY-0015091] | – | inhibitory activity against factor Xa (in words) (Human factor Xa): did not show any inhibitory activity; Inhibition of hydrolysis rate specific to the factor Xa substrate in the buffer system IC50 (Human factor Xa): Not inhibited

Further compounds by rising pIC50 (Human factor Xa), results first:

pIC50 (Human factor Xa) | Compound | other results
5.20 | COc1cc2c3c(c1)-c1c(sn(-c4ccc(Oc5ccc(Cl)cc5)cc4)c1=S)C(C)(C)N3C(=O)C2=O [VGY-0018521] | –
5.30 | O=C1CC(c2cccc(Cl)c2)Cc2nc(N3CCN(Cc4ccc5c(c4)OCO5)CC3)ncc21 (stereo not drawn) [VGY-0037972] | –
5.51 | COc1ccc(C2CC(=O)c3cnc(Nc4nc(C)c5cc(C)c(C)cc5n4)nc3C2)cc1 (stereo not drawn) [VGY-0035262, 7-(4-methoxyphenyl)-2-[(4,6,7-trimethylquinazolin-2-yl)amino]-7,8-dihydroquinazolin-5(6H)-one] | –
5.64 | 6-[(1,3-benzothiazol-2-ylthio)methyl]-2-[(5,6-dimethylquinazolin-2-yl)amino]pyrimidin-4(3H)-one [VGY-0006889] | –
5.70 | COc1cccc(NC(=O)c2nnc3c(-c4ccc(Br)cc4)c(C)nn3c2C)c1 [VGY-0101011, 8-(4-bromophenyl)-N-(3-methoxyphenyl)-4,7-dimethylpyrazolo[5,1-c][1,2,4]triazine-3-carboxamide] | –
5.74 | CC1=CC(C)(C)N2C(=O)C(=C3SC(=S)NC3=O)c3cc(OC(=O)C=Cc4cccc([N+](=O)[O-])c4)cc1c32 [VGY-0018989, 4,4,6-trimethyl-2-oxo-1-(4-oxo-2-thioxo-1,3-thiazolidin-5-ylidene)-1,2-dihydro-4H-pyrrolo[3,2,1-ij]quinolin-8-yl-3-(3-nitrophenyl)prop-2-enoate] | –
